Data on 13 compounds can be found in patent publication US11464770B2, “Anticancer pharmaceutical composition” (NATIONAL CANCER CENTER, priority 2016, dated 2022).

One test relates to melanoma cell lines. The experiment in a line: Cell based assay, cell viability (CellTiter-Glo), melanoma cell lines. The following applies: Homo sapiens; LOX-IMVI cell line. Put shortly:
(§1)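 Seed cells after trypsin-EDTA treatment, hold 24 h at constant temperature, then add compound to a final 0 to 2 μM. Culture 72 h more and measure viability via ATP detection.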
In general terms: In ATP-based viability assays light output follows the ATP content of the culture.

Test [1] concerns MBT-2: Mouse bladder transitional cell carcinoma. The experiment in a line: Cell based assay, cytotoxicity in MBT-2 cells. Conditions: 72 hours. As to the method:
Commercially available bladder cancer, prostate cancer, lung cancer, breast cancer, blood cancer, pancreatic cancer, colorectal cancer, brain cancer, neuroblastoma, melanoma, liver cancer, cervical carcinoma, ovarian cancer, renal cancer, and papilloma cell lines were each treated with trypsin-EDTA and cultured, followed by being seeded in each well of a 96 well plate. After 24 hours of treatment at constant temperature, the respective cells were treated with the candidate compound so that a final concentration became 0 to 2 μM. The treated cells were additionally cultured for 72 hours, and cell viability was measured by using an ATP detection method (CellTiter-Glo® Luminescent Cell Viability Assay, Promega).

For test [2], the system named is colorectal cancer cell lines (e.g. DLD-1, HCT 116, SW620, HCT-15, HCT-8, RKO). Nature of the test: Cell based assay, cell viability (CellTiter-Glo), colorectal cancer cell lines. The essentials:
as §1

[3] abbreviates: Homo sapiens, DLD-1, 72 hours treatment, read-out: IC50, colorectal cancer cell line DLD-1.
[4] abbreviates: Homo sapiens, HCT 116, 72 hours treatment, read-out: IC50, colorectal cancer cell line HCT 116.
Setting [5] is: Homo sapiens, HCT-8, 72 hours treatment, read-out: IC50, colorectal cancer cell line HCT-8.
[6] abbreviates: Homo sapiens, HCT-15, 72 hours treatment, read-out: IC50, colorectal cancer cell line HCT-15.
The mark [7] stands for this setting: Homo sapiens, HT-29, 72 hours treatment, read-out: IC50, colorectal cancer cell line HT-29.
Where [8] appears, read: Homo sapiens, LoVo, 72 hours treatment, read-out: IC50, colorectal cancer cell line LoVo.
[9] abbreviates: Homo sapiens, SW480, 72 hours treatment, read-out: IC50, colorectal cancer cell line SW480.
[10] abbreviates: Homo sapiens, SW-620, SW620, 72 hours treatment, read-out: IC50, colorectal cancer cell line SW620.
Where [11] appears, read: RKO, 72 hours treatment, read-out: IC50, colorectal cancer cell line RKO.
Where [12] appears, read: Homo sapiens, DLD-1 cells, 72 hours treatment, read-out: IC50, colorectal cancer cell line DLD-1.
The mark [13] stands for this setting: Homo sapiens, HCT 116 cells, 72 hours treatment, read-out: IC50, colorectal cancer cell line HCT 116.
Where [14] appears, read: Homo sapiens, HCT-8 cells, 72 hours treatment, read-out: IC50, colorectal cancer cell line HCT-8.
Setting [15] is: Homo sapiens, HCT-15 cells, 72 hours treatment, read-out: IC50, colorectal cancer cell line HCT-15.
[16] abbreviates: Homo sapiens, HT-29 cells, 72 hours treatment, read-out: IC50, colorectal cancer cell line HT-29.
[17] abbreviates: Homo sapiens, LoVo cells, 72 hours treatment, read-out: IC50, colorectal cancer cell line LoVo.
The mark [18] stands for this setting: Homo sapiens, RKO cells, 72 hours treatment, read-out: IC50, colorectal cancer cell line RKO.
Where [19] appears, read: Homo sapiens, SW480 cells, 72 hours treatment, read-out: IC50, colorectal cancer cell line SW480.
[20] abbreviates: Homo sapiens, SW-620, SW620 cells, 72 hours treatment, read-out: IC50, colorectal cancer cell line SW620.

Where two headings read alike, the source gives them in different places. A value given as a limit tells only on which side of the number the result lay.

Turning to `CC(=O)c1c([S+]([O-])Cc2ccc(SC(F)(F)F)cc2)[nH]c2c(Br)ccc(Cl)c2c1=O` (centres unmarked) [Compound 56, 3-acetyl-8-bromo-5-chloro-2-((4-((trifluoromethyl)thio)benzyl)sulfinyl)quinolin-4(1H)-one], the half-inhibitory concentration (IC50) (in general, the concentration needed to halve the response being measured) with melanoma cell lines is 1090 nM; in test [1] it was 1.18 µM; in test [2] (setting [3]), 800 nM; in test [2] (setting [4]) it was 1190 nM; in test [2] (setting [5]), 1690 nM; in test [2] (setting [6]) it was 1320 nM. The IC50 in test [2] (setting [7]) was more than 10000 nM; in test [2] (setting [8]), more than 2000 nM; in test [2] (setting [9]) it was more than 2000 nM; in test [2] (setting [10]), 1910 nM; in test [2] (setting [11]), 1530 nM.
For `CC(=O)c1c([S+]([O-])Cc2ccc(OC(F)(F)F)cc2)[nH]c2c(Br)ccc(Cl)c2c1=O` (centres unmarked) [Compound 71, 3-acetyl-8-bromo-5-chloro-2-((4-(trifluoromethoxy)benzyl)sulfinyl)quinolin-4(1H)-one], the IC50 was 1410 nM with melanoma cell lines; 1150 nM in test [2] (setting [3]); 1730 nM in test [2] (setting [4]); more than 2000 nM in test [2] (setting [5]); 1620 nM in test [2] (setting [6]); more than 10000 nM in test [2] (setting [7]). The half-maximal inhibitory concentration (IC50) in test [2] (setting [8]), in test [2] (setting [9]), in test [2] (setting [10]) and in test [2] (setting [11]) was more than 2000 nM in each case.
Regarding `CC(=O)c1c([S+]([O-])Cc2ccc(C(F)(F)F)o2)[nH]c2c(Br)ccc(Cl)c2c1=O` (centres unmarked) [Compound 72, 3-acetyl-8-bromo-5-chloro-2-(((5-(trifluoromethyl)furan-2-yl)methyl)sulfinyl)quinolin-4(1H)-one], the IC50 in the test on melanoma cell lines is 920 nM; in test [2] (setting [3]) it was 740 nM; in test [2] (setting [4]), 940 nM; in test [2] (setting [5]), 1240 nM; in test [2] (setting [6]), 990 nM; in test [2] (setting [7]), more than 2000 nM. Also, the IC50 in test [2] (setting [8]) stood at 1920 nM; in test [2] (setting [9]) it was 1410 nM; in test [2] (setting [10]), 1240 nM; in test [2] (setting [11]), 1350 nM.
As to `CC(=O)c1c([S+]([O-])Cc2ccc(C#N)cc2)[nH]c2c(Br)ccc(Cl)c2c1=O` (centres unmarked) [Compound 73, 4-(((3-acetyl-8-bromo-5-chloro-4-oxo-1,4-dihydroquinolin-2-yl)sulfinyl)methyl)benzonitrile], the 50% inhibitory concentration (IC50) with melanoma cell lines was 1670 nM; in test [2] (setting [3]), 1330 nM; in test [2] (setting [4]), 1860 nM; in test [2] (setting [5]), more than 2000 nM; in test [2] (setting [6]), more than 2000 nM; in test [2] (setting [7]), more than 10000 nM. Also, the IC50 in test [2] (setting [8]), in test [2] (setting [9]), in test [2] (setting [10]) and in test [2] (setting [11]) was more than 2000 nM in each case.
Take `CC(=O)c1c([S+]([O-])Cc2c(F)cccc2Cl)[nH]c2c(Br)ccc(Cl)c2c1=O` (centres unmarked) [Compound 74, 3-acetyl-8-bromo-5-chloro-2-((2-chloro-6-fluorobenzyl)sulfinyl)quinolin-4(1H)-one]: the half-maximal inhibitory concentration (IC50) is 1260 nM with melanoma cell lines; 1020 nM in test [2] (setting [3]); 1610 nM in test [2] (setting [4]); 2010 nM in test [2] (setting [5]); 1530 nM in test [2] (setting [6]); more than 10000 nM in test [2] (setting [7]). The half-inhibitory concentration (IC50) was more than 2000 nM in test [2] (setting [8]), more than 2000 nM in test [2] (setting [9]), 1770 nM in test [2] (setting [10]) and more than 2000 nM in test [2] (setting [11]).
Turning to `COc1cc(S(F)(F)(F)(F)F)ccc1C[S+]([O-])c1[nH]c2c(Br)ccc(Cl)c2c(=O)c1C(C)=O` (centres unmarked) [Compound 75, 3-acetyl-8-bromo-5-chloro-2-((2-methoxy-4-(pentafluoro--sulfanyl)benzyl)sulfinyl)quinolin-4(1H)-one], the half-maximal inhibitory concentration (IC50) is 1040 nM in the test with melanoma cell lines; 880 nM in test [2] (setting [3]); 1250 nM in test [2] (setting [4]); 1780 nM in test [2] (setting [5]); 1390 nM in test [2] (setting [6]); more than 10000 nM in test [2] (setting [7]). In addition, the 50% inhibitory concentration (IC50) in test [2] (setting [8]) was more than 2000 nM; in test [2] (setting [9]), 1660 nM; in test [2] (setting [10]) it was 1760 nM; in test [2] (setting [11]), 1320 nM.
Turning to `CC(=O)c1c([S+]([O-])Cc2cc(F)cc(S(F)(F)(F)(F)F)c2)[nH]c2c(Br)ccc(Cl)c2c1=O` (centres unmarked) [Compound 76, 3-acetyl-8-bromo-5-chloro-2-((3-fluoro-5-(pentafluoro--sulfanyl)benzyl)sulfinyl)quinolin-4(1H)-one], the IC50 is 1370 nM with melanoma cell lines; 1090 nM in test [2] (setting [3]); 1570 nM in test [2] (setting [4]); more than 2000 nM in test [2] (setting [5]); 1640 nM in test [2] (setting [6]); more than 10000 nM in test [2] (setting [7]). The IC50 in test [2] (setting [8]) was more than 2000 nM; in test [2] (setting [9]), more than 2000 nM; in test [2] (setting [10]) it was more than 2000 nM; in test [2] (setting [11]) it was 1520 nM.
As for `CC(=O)c1c([S+]([O-])Cc2c(F)c(F)c(F)c(F)c2F)[nH]c2c(Br)ccc(Cl)c2c1=O` (centres unmarked) [Compound 78, 3-acetyl-8-bromo-5-chloro-2-(((perfluorophenyl)methyl)sulfinyl)quinolin-4(1H)-one], the IC50 with melanoma cell lines is 1370 nM; in test [2] (setting [3]), 1280 nM; in test [2] (setting [4]), 1930 nM; in test [2] (setting [5]), more than 2000 nM; in test [2] (setting [6]), 1590 nM; in test [2] (setting [7]), more than 10000 nM. Besides, the IC50 in test [2] (setting [8]) was more than 2000 nM; in test [2] (setting [9]), more than 2000 nM; in test [2] (setting [10]), 1760 nM; in test [2] (setting [11]), 1500 nM.
Consider `CC(=O)c1c([S+]([O-])Cc2ccc(I)cc2)[nH]c2c(Cl)ccc(Cl)c2c1=O` (centres unmarked) [Compound 83, 3-acetyl-5,8-dichloro-2-((4-iodobenzyl)sulfinyl)quinolin-4(1H)-one], for which the half-maximal inhibitory concentration (IC50) was 1570 nM with melanoma cell lines; 1380 nM in test [2] (setting [12]); 1800 nM in test [2] (setting [13]); 1880 nM in test [2] (setting [14]); 1620 nM in test [2] (setting [15]); more than 10000 nM in test [2] (setting [16]). In addition, the IC50 in test [2] (setting [17]) is more than 2000 nM; in test [2] (setting [18]), 1030 nM; in test [2] (setting [19]) it was more than 2000 nM; in test [2] (setting [20]) it was more than 2000 nM.
In the case of `CC(=O)c1c([S+]([O-])Cc2cccnc2)[nH]c2c(Br)ccc(Cl)c2c1=O` (centres unmarked) [Compound 84, 3-acetyl-8-bromo-5-chloro-2-((pyridin-3-ylmethyl)sulfinyl)quinolin-4(1H)-one], the IC50 was 1450 nM with melanoma cell lines; 930 nM in test [2] (setting [12]); 1160 nM in test [2] (setting [13]); 1300 nM in test [2] (setting [14]); 1510 nM in test [2] (setting [15]); more than 10000 nM in test [2] (setting [16]). Moreover, the half-maximal inhibitory concentration (IC50) was 1960 nM in test [2] (setting [17]), 1270 nM in test [2] (setting [18]), 1550 nM in test [2] (setting [19]) and 1230 nM in test [2] (setting [20]).
With `Cc1cc(C[S+]([O-])c2[nH]c3c(Cl)ccc(Cl)c3c(=O)c2C(=O)C(C)C)no1` (centres unmarked) [Compound 86, 5,8-dichloro-3-isobutyryl-2-(((5-methylisoxazol-3-yl)methyl)sulfinyl)quinolin-4(1H)-one], the IC50 with melanoma cell lines was 710 nM; in test [2] (setting [12]) it was 1090 nM; in test [2] (setting [13]) it was 860 nM; in test [2] (setting [14]) it was 1110 nM; in test [2] (setting [15]), 1260 nM; in test [2] (setting [16]), more than 10000 nM. Besides, the IC50 amounted to 1150 nM in test [2] (setting [17]), 890 nM in test [2] (setting [18]), 1270 nM in test [2] (setting [19]) and 740 nM in test [2] (setting [20]).
On to `COC(=O)c1ccc(C[S+]([O-])c2[nH]c3c(Cl)ccc(Cl)c3c(=O)c2C(C)=O)o1` (centres unmarked) [Compound 89, methyl 5-(((3-acetyl-5,8-dichloro-4-oxo-1,4-dihydroquinolin-2-yl)sulfinyl)methyl)furan-2-carboxylate], for which the 50% inhibitory concentration (IC50) in the test on melanoma cell lines was 1650 nM; in test [2] (setting [12]), 1640 nM; in test [2] (setting [13]) it was 1590 nM; in test [2] (setting [14]) it was more than 2000 nM; in test [2] (setting [15]) it was more than 2000 nM; in test [2] (setting [16]), more than 10000 nM. The half-inhibitory concentration (IC50) in test [2] (setting [17]) was more than 2000 nM; in test [2] (setting [18]) it was 1720 nM; in test [2] (setting [19]), more than 2000 nM; in test [2] (setting [20]), 1700 nM.
Regarding `Cc1cc(C[S+]([O-])c2[nH]c3c(Br)ccc(Cl)c3c(=O)c2C(=O)C(C)C)no1` (centres unmarked) [Compound 95, 8-bromo-5-chloro-3-isobutyryl-2-(((5-methylisoxazol-3-yl)methyl)sulfinyl)quinolin-4(1H)-one], the IC50 in the test with melanoma cell lines is 540 nM; in test [2] (setting [12]), 1130 nM; in test [2] (setting [13]), 760 nM; in test [2] (setting [14]) it was 810 nM; in test [2] (setting [15]), 1060 nM; in test [2] (setting [16]) it was more than 10000 nM. Besides, the concentration for half-maximal inhibition (IC50) in test [2] (setting [17]) was 910 nM; in test [2] (setting [18]), 920 nM; in test [2] (setting [19]), 1190 nM; in test [2] (setting [20]), 640 nM.
